According to PubChem BioAssay AID328 (DTP/NCI, 2004):
Where “and” joins values, the source holds several entries; their conditions need not be identical. Identical values can stand only once. Toxic doses and inconclusive results are not listed. How the source made its calls: active means survival T/C of 150% or more; inactive means T/C below 125% in these data.

Tested on: BDF1 mice, P388 leukemia ip, median survival T/C
Assay: NCI In Vivo Anticancer Drug Screen. Data for tumor model P388 Leukemia (intraperitoneal) in B6D2F1 (BDF1) mice
Settings: endpoint: median survival time, higher = longer survival
Procedure, shortened: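 In tumour-bearing mice, survival after compound treatment is set against the vehicle group and given as a quotient.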

[1] = dose: 100.0 mg/kg/injection, schedule: Q04DX003 (ip), vehicle: Klucel (hydroxypropylcellulose) (HPC)
[2] = dose: 200.0 mg/kg/injection, schedule: Q04DX003 (ip), vehicle: Klucel (hydroxypropylcellulose) (HPC)
[3] = dose: 100.0 mg/kg/injection, schedule: Q04DX002 (ip), vehicle: saline with Tween-80
[4] = dose: 200.0 mg/kg/injection, schedule: Q04DX002 (ip), vehicle: saline with Tween-80
[5] = dose: 400.0 mg/kg/injection, schedule: Q04DX002 (ip), vehicle: saline with Tween-80
[6] = dose: 50.0 mg/kg/injection, schedule: Q01DX009 (ip), vehicle: saline with Tween-80
[7] = dose: 400.0 mg/kg/injection, schedule: Q04DX003 (ip), vehicle: Klucel (hydroxypropylcellulose) (HPC)
[8] = dose: 50.0 mg/kg/injection, schedule: Q01DX009 (ip), vehicle: saline
[9] = dose: 100.0 mg/kg/injection, schedule: Q01DX009 (ip), vehicle: saline
[10] = dose: 200.0 mg/kg/injection, schedule: Q01DX009 (ip), vehicle: saline
[11] = dose: 100.0 mg/kg/injection, schedule: Q04DX003 (ip), vehicle: saline sonified
[12] = dose: 100.0 mg/kg/injection, schedule: Q01DX009 (ip), vehicle: saline with Tween-80
[13] = dose: 200.0 mg/kg/injection, schedule: Q01DX009 (ip), vehicle: saline with Tween-80
[14] = dose: 300.0 mg/kg/injection, schedule: Q01DX009 (ip), vehicle: saline with Tween-80
[15] = dose: 400.0 mg/kg/injection, schedule: Q01DX009 (ip), vehicle: saline with Tween-80
[16] = dose: 50.0 mg/kg/injection, schedule: Q01DX009 (ip), vehicle: Klucel (hydroxypropylcellulose) (HPC)
[17] = dose: 100.0 mg/kg/injection, schedule: Q01DX009 (ip), vehicle: Klucel (hydroxypropylcellulose) (HPC)
[18] = dose: 200.0 mg/kg/injection, schedule: Q01DX009 (ip), vehicle: Klucel (hydroxypropylcellulose) (HPC)
[19] = dose: 400.0 mg/kg/injection, schedule: Q01DX009 (ip), vehicle: Klucel (hydroxypropylcellulose) (HPC)
[20] = dose: 100.0 mg/kg/injection, schedule: Q04DX003 (ip), vehicle: saline
[21] = dose: 200.0 mg/kg/injection, schedule: Q04DX003 (ip), vehicle: saline
[22] = dose: 400.0 mg/kg/injection, schedule: Q04DX003 (ip), vehicle: saline
[23] = dose: 25.0 mg/kg/injection, schedule: Q01DX009 (ip), vehicle: saline with Tween-80

Measured: T/C

CC(=O)Nc1ccc(NC(=O)NCCCl)cc1
inactive: dose: 50.0 mg/kg/injection, schedule: Q04DX003 (ip), vehicle: Klucel (hydroxypropylcellulose) (HPC) 110 % of control | dose: 59.0 mg/kg/injection, schedule: Q01DX009 (ip), vehicle: Klucel (hydroxypropylcellulose) (HPC) 100 % of control | dose: 88.0 mg/kg/injection, schedule: Q01DX009 (ip), vehicle: Klucel (hydroxypropylcellulose) (HPC) 100 % of control | [1] 110 % of control | dose: 133.0 mg/kg/injection, schedule: Q01DX009 (ip), vehicle: Klucel (hydroxypropylcellulose) (HPC) 115 % of control | dose: 133.0 mg/kg/injection, schedule: Q04DX003 (ip), vehicle: Klucel (hydroxypropylcellulose) (HPC) 90 % of control and 100 % of control | [2] 90 % of control and 100 % of control | dose: 300.0 mg/kg/injection, schedule: Q04DX003 (ip), vehicle: Klucel (hydroxypropylcellulose) (HPC) 90 % of control

O=C(C=C(C(F)(F)F)C(F)(F)F)c1ccc(Br)cc1
inactive: dose: 5.56 mg/kg/injection, schedule: Q01DX009 (ip), vehicle: other 113 % of control | dose: 8.33 mg/kg/injection, schedule: Q01DX009 (ip), vehicle: other 113 % of control | dose: 12.5 mg/kg/injection, schedule: Q01DX009 (ip), vehicle: other 109 % of control | dose: 18.7 mg/kg/injection, schedule: Q01DX009 (ip), vehicle: other 109 % of control

CCOC(=O)c1c/c(=C(\C)O)c(=O)n2c1nc1ccccc12
inactive: [3] 100 % of control | [4] 87 % of control | [5] 103 % of control

N#Cc1c(SCc2ccc(Cl)cc2)nsc1Nc1ccc(Cl)cc1
inactive: [6] 108 % of control

c1ccc(CNCCOB(OCCNCc2ccccc2)OCCNCc2ccccc2)cc1
inactive: [1] 100 % of control | [2] 104 % of control | [7] 100 % of control

CCOC(=O)C(=NN(C)C)C(=O)OCC
inactive: [8] 104 % of control | [9] 92 % of control | [10] 101 % of control

NC1=NC(c2ccc(Cl)cc2)N(c2ccc(S(=O)(=O)Nc3ncccn3)cc2)C(N)=N1 (stereo not drawn)
inactive: dose: 25.0 mg/kg/injection, schedule: Q04DX003 (ip), vehicle: saline sonified 104 % of control | dose: 50.0 mg/kg/injection, schedule: Q04DX003 (ip), vehicle: saline sonified 104 % of control | [11] 95 % of control

Cc1ccc(C(=Nc2ccccc2)c2ccccc2C)cc1
inactive: [3] 88 % of control and 100 % of control | [4] 91 % of control | [5] 86 % of control

Cc1c(Cl)cccc1NC(=O)Nc1ccccc1
inactive: dose: 100.0 mg/kg/injection, schedule: Q04DX003 (ip), vehicle: DMSO 103 % of control | dose: 200.0 mg/kg/injection, schedule: Q04DX003 (ip), vehicle: DMSO 100 % of control | dose: 400.0 mg/kg/injection, schedule: Q04DX003 (ip), vehicle: DMSO 107 % of control

COc1ccccc1N1C(=O)CC(Sc2ccccc2N)C1=O (stereo not drawn)
inactive: [12] 91 % of control | dose: 132.0 mg/kg/injection, schedule: Q01DX009 (ip), vehicle: saline with Tween-80 95 % of control | [13] 105 % of control | [14] 105 % of control | [15] 91 % of control

CC1CC2=CC(=O)C=CC2(C)C2CCC3(C)C(O)CCC3C12 (stereo not drawn)
inactive: dose: 1.56 mg/kg/injection, schedule: Q01DX009 (ip), vehicle: Klucel (hydroxypropylcellulose) (HPC) 86 % of control | dose: 3.12 mg/kg/injection, schedule: Q01DX009 (ip), vehicle: Klucel (hydroxypropylcellulose) (HPC) 107 % of control | dose: 6.25 mg/kg/injection, schedule: Q01DX009 (ip), vehicle: Klucel (hydroxypropylcellulose) (HPC) 99 % of control | dose: 25.0 mg/kg/injection, schedule: Q01DX009 (ip), vehicle: Klucel (hydroxypropylcellulose) (HPC) 95 % of control | [16] 91 % of control | [8] 90 % of control | [17] 95 % of control and 97 % of control | [1] 91 % of control | [18] 96 % of control and 97 % of control | [2] 95 % of control | [19] 86 % of control and 88 % of control | [7] 87 % of control

O=C1NN(CCO)C(=S)Nc2ccccc21
inactive: [16] 100 % of control | [17] 100 % of control | [18] 90 % of control

Cc1cc(=O)[nH]c2c1CCCC2
inactive: dose: 37.5 mg/kg/injection, schedule: Q01DX009 (ip), vehicle: saline with Tween-80 92 % of control | dose: 75.0 mg/kg/injection, schedule: Q01DX009 (ip), vehicle: saline with Tween-80 99 % of control and 118 % of control | dose: 150.0 mg/kg/injection, schedule: Q01DX009 (ip), vehicle: saline with Tween-80 103 % of control | [14] 91 % of control

C(=C/c1ccc(/C=C/c2ccccc2)cc1)/c1ccccc1
inactive: dose: 65.0 mg/kg/injection, schedule: Q01DX009 (ip), vehicle: Klucel (hydroxypropylcellulose) (HPC) 100 % of control | dose: 66.7 mg/kg/injection, schedule: Q01DX009 (ip), vehicle: Klucel (hydroxypropylcellulose) (HPC) 111 % of control | [17] 94 % of control and 95 % of control | [1] 90 % of control | dose: 150.0 mg/kg/injection, schedule: Q01DX009 (ip), vehicle: Klucel (hydroxypropylcellulose) (HPC) 100 % of control and 116 % of control | [2] 110 % of control | [19] 113 % of control | [7] 105 % of control

COc1ccc(C(O)CN)cc1 (stereo not drawn)
inactive: [20] 98 % of control | [21] 97 % of control | [22] 96 % of control

Clc1ccc(-c2ncc3cnccn23)cc1Cl
inactive: dose: 0.78 mg/kg/injection, schedule: Q04DX003 (ip), vehicle: saline with Tween-80 92 % of control | dose: 1.56 mg/kg/injection, schedule: Q01DX009 (ip), vehicle: saline with Tween-80 89 % of control | dose: 1.56 mg/kg/injection, schedule: Q04DX003 (ip), vehicle: saline with Tween-80 90 % of control | dose: 3.12 mg/kg/injection, schedule: Q01DX009 (ip), vehicle: saline with Tween-80 95 % of control | dose: 3.12 mg/kg/injection, schedule: Q04DX003 (ip), vehicle: saline with Tween-80 94 % of control | dose: 6.25 mg/kg/injection, schedule: Q01DX009 (ip), vehicle: saline with Tween-80 95 % of control | dose: 6.25 mg/kg/injection, schedule: Q04DX003 (ip), vehicle: saline with Tween-80 100 % of control | dose: 12.5 mg/kg/injection, schedule: Q01DX009 (ip), vehicle: saline with Tween-80 99 % of control | [23] 100 % of control | [6] 100 % of control

Cc1ccc2[nH]c(=S)n(-c3cccc(C(F)(F)F)c3)c(=O)c2c1
inactive: [23] 102 % of control | [6] 92 % of control and 94 % of control | [12] 102 % of control | [13] 93 % of control | [15] 102 % of control

NC(=O)c1ccc(C(F)(F)F)cc1O
inactive: [1] 90 % of control | [2] 90 % of control

CC(=O)c1ccccc1OS(=O)(=O)c1ccc([N+](=O)[O-])cc1
inactive: dose: 100.0 mg/kg/injection, schedule: Q01DX009 (ip), vehicle: saline sonified 95 % of control | [11] 100 % of control | dose: 200.0 mg/kg/injection, schedule: Q01DX009 (ip), vehicle: saline sonified 104 % of control | dose: 200.0 mg/kg/injection, schedule: Q04DX003 (ip), vehicle: saline sonified 90 % of control | dose: 400.0 mg/kg/injection, schedule: Q04DX003 (ip), vehicle: saline sonified 100 % of control

CCCCN=C(N)N=C(N)N
inactive: [8] 105 % of control | [9] 108 % of control

COC(=N)CCCCCC(=N)OC
inactive: dose: 50.0 mg/kg/injection, schedule: Q01DX005 (ip), vehicle: saline 92 % of control | dose: 100.0 mg/kg/injection, schedule: Q01DX005 (ip), vehicle: saline 97 % of control | dose: 200.0 mg/kg/injection, schedule: Q01DX005 (ip), vehicle: saline 87 % of control

COC(C)C(Br)C(=O)O (stereo not drawn)
inactive: [9] 88 % of control | [20] 100 % of control | [10] 92 % of control | [21] 91 % of control | [22] 91 % of control
